Values after ≈ are worked out from the molar mass of the structure shown.
Tested on: M. catarrhalis A894
Assay: Minimal inhibitory concentration (MIC), microdilution method in cation-adjusted Mueller-Hinton Broth (CLSI M7-A7)
Assay type: cell-based
Details: strain A894; for MIC: Moraxella catarrhalis
Description: Minimal inhibitory concentrations (MICs; mg/1) were determined in cation-adjusted Mueller-Hinton Broth by a microdilution method following the description given in “Methods for Dilution Antimicrobial Susceptibility Tests for Bacteria that Grow Aerobically”, Approved standard, 7th ed., Clinical and Laboratory Standards Institute (CLSI) Document M7-A7, Wayne, Pa., USA, 2006.

Structure (SMILES) | MIC | MIC for M. catarrhalis A894
O=C1COc2ccc(N3C[C@@H](CCCN[C@@H]4Cn5c(=O)cnc6ccc(F)c4c65)OC3=O)cc2N1 [Example 57, (S)-7-fluoro-6-{3-[(R)-2-oxo-3-(3-oxo-3,4-dihydro-2H-benzo[1,4]oxazin-6-yl)-oxazolidin-5-yl]-propylamino}-5,6-dihydro-pyrrolo[1,2,3-de]quinoxalin-3-one] | ≤ 0.031 µg/mL | –
Cc1ccc(N2C[C@@H](CCNC[C@@H]3Cn4c(=O)ccc5ccc(F)c3c54)OC2=O)cc1F (racemic) [Example 6, (1RS)-9-fluoro-1-({2-[(RS)-3-(3-fluoro-4-methyl-phenyl)-2-oxo-oxazolidin-5-yl]-ethylamino}-methyl)-1,2-dihydro-pyrrolo[3,2,1-U]quinolin-4-one] | – | 0.125 mg/L
O=C1CSc2ccc(N3C[C@@H](CCCNC4Cn5c(=O)ccc6ncc(F)c4c65)OC3=O)cc2N1 (mixture of isomers) [Example 94, (RS)-3-fluoro-4-{3-[(R)-2-oxo-3-(3-oxo-3,4-dihydro-2H-benzo[1,4]thiazin-6-yl)-oxazolidin-5-yl]-propylamino}-4,5-dihydro-pyrrolo[3,2,1-de][1,5]naphthyridin-7-one] | ≤ 0.031 µg/mL | –
O=C1COc2ccc(N3C[C@@H](CNCCC4CN5C(=O)CCc6ccc(F)c4c65)OC3=O)cc2N1 (mixture of isomers) [Example 25, (1RS)-9-fluoro-1-(2-{[(R)-2-oxo-3-(3-oxo-3,4-dihydro-2H-benzo[1,4]oxazin-6-yl)-oxazolidin-5-ylmethyl]-amino}-ethyl)-1,2,5,6-tetrahydro-pyrrolo[3,2,1-ij]quinolin-4-one] | ≤ 0.031 µg/mL | –
O=C1CSc2ccc(N3C[C@H](CCCN[C@@H]4Cn5c(=O)ccc6ncc(F)c4c65)OC3=O)nc2N1 [Example 150, (S)-3-fluoro-4-{3-[(S)-2-oxo-3-(3-oxo-3,4-dihydro-2H-pyrido[3,2-b][1,4]thiazin-6-yl)-oxazolidin-5-yl]-propylamino}-4,5-dihydro-pyrrolo[3,2,1-de][1,5]naphthyridin-7-one] | ≤ 0.031 µg/mL | –
O=C1COc2ccc(N3C[C@H](CCCN[C@@H]4Cn5c(=O)ccc6ncc(F)c4c65)OC3=O)nc2N1 [Example 151, (S)-3-fluoro-4-{3-[(S)-2-oxo-3-(3-oxo-3,4-dihydro-2H-pyrido[3,2-b][1,4]oxazin-6-yl)-oxazolidin-5-yl]-propylamino}-4,5-dihydro-pyrrolo[3,2,1-de][1,5]naphthyridin-7-one] | ≤ 0.031 µg/mL | –
O=C1COc2ccc(N3C[C@@H](CCCN(CCO)[C@@H]4Cn5c(=O)cnc6ccc(F)c4c65)OC3=O)cc2N1 [Example 67, (S)-7-fluoro-6-((2-hydroxy-ethyl)-{3-[(R)-2-oxo-3-(3-oxo-3,4-dihydro-2H-benzo[1,4]oxazin-6-yl)-oxazolidin-5-yl]-propyl}-amino)-5,6-dihydro-pyrrolo[1,2,3-de]quinoxalin-3-one] | ≤ 0.063 µg/mL | –
O=C1COc2ccc(N3C[C@H](CCCN[C@H]4Cn5c(=O)ccc6ncc(F)c4c65)OC3=O)nc2N1 [Example 144, (R)-3-fluoro-4-{3-[(S)-2-oxo-3-(3-oxo-3,4-dihydro-2H-pyrido[3,2-b][1,4]oxazin-6-yl)-oxazolidin-5-yl]-propylamino}-4,5-dihydro-pyrrolo[3,2,1-de][1,5]naphthyridin-7-one] | ≤ 0.031 µg/mL | –
O=C1CSc2ccc(N3C[C@@H](CCCN[C@H]4Cn5c(=O)ccc6ncc(F)c4c65)OC3=O)nc2N1 [Example 142, (R)-3-fluoro-4-{3-[(R)-2-oxo-3-(3-oxo-3,4-dihydro-2H-pyrido[3,2-b][1,4]thiazin-6-yl)-oxazolidin-5-yl]-propylamino}-4,5-dihydro-pyrrolo[3,2,1-de][1,5]naphthyridin-7-one] | ≤ 0.031 µg/mL | –

Now from value to compound, other results behind:

MIC | Structure (SMILES) | MIC for M. catarrhalis A894
≤ 0.031 µg/mL | O=C1COc2ccc(N3C[C@H](CCCN[C@H]4Cn5c(=O)ccc6cccc4c65)OC3=O)cc2N1 [Example 134, (R)-1-{3-[(S)-2-oxo-3-(3-oxo-3,4-dihydro-2H-benzo[1,4]oxazin-6-yl)-oxazolidin-5-yl]-propylamino}-1,2-dihydro-pyrrolo[3,2,1-ij]quinolin-4-one] | –
≤ 0.031 µg/mL | C[C@H]1[C@H](NCCC[C@@H]2CN(c3ccc4c(n3)NC(=O)CS4)C(=O)O2)c2c(F)ccc3ccc(=O)n1c23 (relative stereo) [Example 185, (1R*,2S*)-9-fluoro-2-methyl-1-{3-[(R)-2-oxo-3-(3-oxo-3,4-dihydro-2H-pyrido[3,2-b][1,4]thiazin-6-yl)-oxazolidin-5-yl]-propylamino}-1,2-dihydro-pyrrolo[3,2,1-ij]quinolin-4-one] | –
≤ 0.031 µg/mL | O=C1CSc2ccc(N3C[C@@H](CCCN[C@H]4Cn5c(=O)ccc6ccc(F)c4c65)OC3=O)nc2N1 [Example 196, (R)-9-fluoro-1-{3-[(R)-2-oxo-3-(3-oxo-3,4-dihydro-2H-pyrido[3,2-b][1,4]thiazin-6-yl)-oxazolidin-5-yl]-propylamino}-1,2-dihydro-pyrrolo[3,2,1-ij]quinolin-4-one] | –
≤ 0.031 µg/mL | O=C1CSc2ccc(N3C[C@@H](CNCCC4CN5C(=O)CCc6ccc(F)c4c65)OC3=O)cc2N1 (mixture of isomers) [Example 24, (1RS)-9-fluoro-1-(2-{[(R)-2-oxo-3-(3-oxo-3,4-dihydro-2H-benzo[1,4]thiazin-6-yl)-oxazolidin-5-ylmethyl]-amino}-ethyl)-1,2,5,6-tetrahydro-pyrrolo[3,2,1-ij]quinolin-4-one] | –
0.031 µg/mL (≈ 0.0649 µM) | O=C1CSc2ccc(N3C[C@H](CCNC[C@H]4Cn5c(=O)ccc6nccc4c65)OC3=O)cc2N1 [Example 77, (S)-4-({2-[(S)-2-oxo-3-(3-oxo-3,4-dihydro-2H-benzo[1,4]thiazin-6-yl)-oxazolidin-5-yl]-ethylamino}-methyl)-4,5-dihydro-pyrrolo[3,2,1-de][1,5]naphthyridin-7-one] | –
16 µg/mL | Cc1ccc(N2C[C@@H](CNCC3Cn4c(=O)ccc5ccc(F)c3c54)OC2=O)cc1F (mixture of isomers) [Example 33, (1RS)-9-fluoro-1-({[(R)-3-(3-fluoro-4-methyl-phenyl)-2-oxo-oxazolidin-5-ylmethyl]-amino}-methyl)-1,2-dihydro-pyrrolo[3,2,1-ij]quinolin-4-one] | –
≤ 0.031 µg/mL | O=C1CSc2ccc(N3C[C@@H](CN(CCO)CCC4Cn5c(=O)ccc6ccc(F)c4c65)OC3=O)cc2N1 (mixture of isomers) [Example 69, (RS)-9-fluoro-1-(2-{(2-hydroxy-ethyl)-[(R)-2-oxo-3-(3-oxo-3,4-dihydro-2H-benzo[1,4]thiazin-6-yl)-oxazolidin-5-ylmethyl]-amino}-ethyl)-1,2-dihydro-pyrrolo[3,2,1-ij]quinolin-4-one] | –
≤ 0.031 µg/mL | O=C1CSc2ccc(N3C[C@@H](CCNCC4Cn5c(=O)cnc6cccc4c65)OC3=O)cc2N1 (mixture of isomers) [Example 156, (RS)-6-({2-[(R)-2-oxo-3-(3-oxo-3,4-dihydro-2H-benzo[1,4]thiazin-6-yl)-oxazolidin-5-yl]-ethylamino}-methyl)-5,6-dihydro-pyrrolo[1,2,3-de]quinoxalin-3-one] | –
≤ 0.031 µg/mL | O=C1CSc2ccc(N3C[C@H](CNCC4Cn5c(=O)ccc6ncc(F)c4c65)OC3=O)cc2N1 (mixture of isomers) [Example 101, (RS)-3-fluoro-4-({[(S)-2-oxo-3-(3-oxo-3,4-dihydro-2H-benzo[1,4]thiazin-6-yl)-oxazolidin-5-ylmethyl]-amino}-methyl)-4,5-dihydro-pyrrolo[3,2,1-de][1,5]naphthyridin-7-one] | –
